Assays:
[1] = biological target: T1, Amine oxidase [flavin-containing] A (Homo sapiens, UniProt P21397); format: functional
T1 sequence (P21397 whole entry): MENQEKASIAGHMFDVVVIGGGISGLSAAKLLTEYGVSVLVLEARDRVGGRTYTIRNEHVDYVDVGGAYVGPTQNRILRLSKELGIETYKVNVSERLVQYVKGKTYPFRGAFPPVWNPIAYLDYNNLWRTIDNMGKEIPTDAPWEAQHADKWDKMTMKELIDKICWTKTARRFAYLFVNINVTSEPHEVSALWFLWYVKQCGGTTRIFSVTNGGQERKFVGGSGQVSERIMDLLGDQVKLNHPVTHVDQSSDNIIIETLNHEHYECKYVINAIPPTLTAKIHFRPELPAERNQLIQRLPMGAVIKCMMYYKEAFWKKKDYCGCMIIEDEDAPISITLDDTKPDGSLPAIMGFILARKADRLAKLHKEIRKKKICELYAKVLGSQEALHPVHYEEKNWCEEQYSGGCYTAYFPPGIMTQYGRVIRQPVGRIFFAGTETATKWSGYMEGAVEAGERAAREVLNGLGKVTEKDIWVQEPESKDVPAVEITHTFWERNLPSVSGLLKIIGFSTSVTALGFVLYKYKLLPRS

D(1A) dopamine receptor = D(1A) dopamine receptor (Homo sapiens, UniProt P21728)
Chain of D(1A) dopamine receptor (P21728 whole entry): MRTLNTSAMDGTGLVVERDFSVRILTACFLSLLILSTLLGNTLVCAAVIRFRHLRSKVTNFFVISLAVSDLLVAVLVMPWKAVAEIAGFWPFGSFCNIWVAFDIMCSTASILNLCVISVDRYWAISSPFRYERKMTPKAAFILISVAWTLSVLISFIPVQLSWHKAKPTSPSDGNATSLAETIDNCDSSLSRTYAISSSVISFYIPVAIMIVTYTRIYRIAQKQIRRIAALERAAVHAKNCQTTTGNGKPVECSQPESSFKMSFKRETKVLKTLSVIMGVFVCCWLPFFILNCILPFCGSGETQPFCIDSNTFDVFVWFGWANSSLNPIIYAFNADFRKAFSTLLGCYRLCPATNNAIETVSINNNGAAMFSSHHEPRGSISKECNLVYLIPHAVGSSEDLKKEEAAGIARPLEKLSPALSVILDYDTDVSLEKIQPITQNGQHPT

[2] = biological target: 5-hydroxytryptamine receptor 2B (Homo sapiens, UniProt P41595); format: functional, cell-based
Chain of 5-hydroxytryptamine receptor 2B (P41595 whole entry): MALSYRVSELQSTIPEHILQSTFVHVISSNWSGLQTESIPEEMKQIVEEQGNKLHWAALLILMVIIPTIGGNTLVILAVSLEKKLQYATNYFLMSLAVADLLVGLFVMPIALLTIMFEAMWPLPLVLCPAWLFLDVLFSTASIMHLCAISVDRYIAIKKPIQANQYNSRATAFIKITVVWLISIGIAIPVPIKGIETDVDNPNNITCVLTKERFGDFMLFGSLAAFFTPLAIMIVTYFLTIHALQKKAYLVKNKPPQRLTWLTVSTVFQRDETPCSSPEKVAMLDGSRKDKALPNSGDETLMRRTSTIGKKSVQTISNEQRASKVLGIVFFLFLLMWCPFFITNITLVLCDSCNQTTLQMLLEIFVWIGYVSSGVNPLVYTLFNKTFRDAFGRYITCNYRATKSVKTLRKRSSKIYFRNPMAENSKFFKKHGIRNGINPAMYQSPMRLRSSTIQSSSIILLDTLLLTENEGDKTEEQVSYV

[3] = biological target: Prostaglandin G/H synthase 1 (Homo sapiens, UniProt P23219); format: functional
Chain of Prostaglandin G/H synthase 1 (P23219 whole entry): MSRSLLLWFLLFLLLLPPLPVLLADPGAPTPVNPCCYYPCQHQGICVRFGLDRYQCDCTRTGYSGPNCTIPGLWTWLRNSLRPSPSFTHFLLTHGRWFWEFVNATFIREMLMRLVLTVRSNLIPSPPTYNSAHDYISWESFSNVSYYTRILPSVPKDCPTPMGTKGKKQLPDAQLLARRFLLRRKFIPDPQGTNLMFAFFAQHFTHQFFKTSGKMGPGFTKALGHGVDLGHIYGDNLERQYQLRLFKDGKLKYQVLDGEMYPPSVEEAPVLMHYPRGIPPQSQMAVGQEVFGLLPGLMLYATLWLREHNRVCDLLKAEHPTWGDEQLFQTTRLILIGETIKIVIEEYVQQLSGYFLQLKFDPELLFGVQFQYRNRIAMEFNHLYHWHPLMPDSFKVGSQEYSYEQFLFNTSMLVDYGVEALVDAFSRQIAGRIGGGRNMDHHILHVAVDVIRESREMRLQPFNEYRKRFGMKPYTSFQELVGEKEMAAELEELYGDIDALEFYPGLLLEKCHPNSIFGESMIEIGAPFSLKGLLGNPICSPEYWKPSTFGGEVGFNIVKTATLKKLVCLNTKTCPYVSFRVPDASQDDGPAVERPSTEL

Histamine H3 receptor = Histamine H3 receptor (Homo sapiens, UniProt Q9Y5N1)
Chain of Histamine H3 receptor (Q9Y5N1 whole entry): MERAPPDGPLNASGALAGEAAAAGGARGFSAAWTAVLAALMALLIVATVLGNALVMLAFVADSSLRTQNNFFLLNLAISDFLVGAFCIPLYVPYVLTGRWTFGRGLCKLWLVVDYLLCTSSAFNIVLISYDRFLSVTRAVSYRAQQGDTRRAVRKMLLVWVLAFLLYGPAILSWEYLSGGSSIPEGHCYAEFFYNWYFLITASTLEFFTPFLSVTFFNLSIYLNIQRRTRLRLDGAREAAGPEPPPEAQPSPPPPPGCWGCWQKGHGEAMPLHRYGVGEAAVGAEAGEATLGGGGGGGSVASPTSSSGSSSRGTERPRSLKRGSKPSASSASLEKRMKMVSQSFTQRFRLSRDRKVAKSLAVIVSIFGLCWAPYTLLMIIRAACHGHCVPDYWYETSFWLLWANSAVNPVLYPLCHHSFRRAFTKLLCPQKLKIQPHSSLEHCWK

[4] = biological target: T2, Muscarinic acetylcholine receptor M2 (Homo sapiens, UniProt P08172)
T2 sequence (P08172 whole entry): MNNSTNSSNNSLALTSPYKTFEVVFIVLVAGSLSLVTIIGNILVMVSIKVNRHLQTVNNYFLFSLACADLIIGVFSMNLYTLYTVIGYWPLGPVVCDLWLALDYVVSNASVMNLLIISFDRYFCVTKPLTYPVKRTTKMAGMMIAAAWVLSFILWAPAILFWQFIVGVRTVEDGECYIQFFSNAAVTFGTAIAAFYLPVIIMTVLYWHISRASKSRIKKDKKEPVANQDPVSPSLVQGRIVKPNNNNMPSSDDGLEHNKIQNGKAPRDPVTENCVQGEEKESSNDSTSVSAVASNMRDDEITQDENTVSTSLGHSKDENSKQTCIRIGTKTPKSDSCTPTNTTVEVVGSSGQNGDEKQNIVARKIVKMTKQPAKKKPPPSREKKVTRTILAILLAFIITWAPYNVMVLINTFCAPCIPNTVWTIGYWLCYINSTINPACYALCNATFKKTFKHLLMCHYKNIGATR

[5] = biological target: cGMP-inhibited 3',5'-cyclic phosphodiesterase 3A (Homo sapiens, UniProt Q14432); format: functional
Chain of cGMP-inhibited 3',5'-cyclic phosphodiesterase 3A (Q14432 whole entry): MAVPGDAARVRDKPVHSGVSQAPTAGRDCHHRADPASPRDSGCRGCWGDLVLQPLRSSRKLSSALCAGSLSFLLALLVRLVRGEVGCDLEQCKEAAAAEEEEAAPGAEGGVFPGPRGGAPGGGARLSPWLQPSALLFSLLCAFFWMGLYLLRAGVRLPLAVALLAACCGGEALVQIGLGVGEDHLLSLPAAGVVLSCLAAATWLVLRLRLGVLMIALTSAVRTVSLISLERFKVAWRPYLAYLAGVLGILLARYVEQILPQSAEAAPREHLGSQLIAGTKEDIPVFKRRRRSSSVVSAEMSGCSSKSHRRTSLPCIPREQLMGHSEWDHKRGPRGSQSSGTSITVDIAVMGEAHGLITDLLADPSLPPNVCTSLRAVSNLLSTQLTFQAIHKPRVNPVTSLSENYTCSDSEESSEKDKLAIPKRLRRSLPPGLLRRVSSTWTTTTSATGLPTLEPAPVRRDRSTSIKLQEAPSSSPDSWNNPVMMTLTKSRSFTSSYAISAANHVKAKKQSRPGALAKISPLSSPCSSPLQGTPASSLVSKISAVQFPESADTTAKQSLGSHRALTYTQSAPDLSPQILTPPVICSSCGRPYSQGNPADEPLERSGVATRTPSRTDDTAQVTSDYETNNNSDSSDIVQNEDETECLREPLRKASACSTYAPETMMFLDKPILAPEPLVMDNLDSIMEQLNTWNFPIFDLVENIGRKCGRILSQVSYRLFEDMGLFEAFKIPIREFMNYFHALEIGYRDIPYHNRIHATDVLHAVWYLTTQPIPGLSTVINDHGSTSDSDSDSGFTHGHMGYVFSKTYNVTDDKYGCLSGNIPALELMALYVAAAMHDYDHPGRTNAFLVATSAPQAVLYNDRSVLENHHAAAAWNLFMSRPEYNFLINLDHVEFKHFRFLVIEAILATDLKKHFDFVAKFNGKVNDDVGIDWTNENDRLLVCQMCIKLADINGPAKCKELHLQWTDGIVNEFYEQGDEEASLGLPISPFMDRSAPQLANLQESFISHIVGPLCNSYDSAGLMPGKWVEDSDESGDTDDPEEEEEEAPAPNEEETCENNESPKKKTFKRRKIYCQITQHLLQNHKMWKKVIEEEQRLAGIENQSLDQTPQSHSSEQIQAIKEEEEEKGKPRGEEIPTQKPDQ

Prothrombin = Prothrombin (Homo sapiens, UniProt P00734); format: functional
[6] = biological target: T3, Alpha-2A adrenergic receptor (Homo sapiens, UniProt P08913)
T3 sequence (P08913 whole entry): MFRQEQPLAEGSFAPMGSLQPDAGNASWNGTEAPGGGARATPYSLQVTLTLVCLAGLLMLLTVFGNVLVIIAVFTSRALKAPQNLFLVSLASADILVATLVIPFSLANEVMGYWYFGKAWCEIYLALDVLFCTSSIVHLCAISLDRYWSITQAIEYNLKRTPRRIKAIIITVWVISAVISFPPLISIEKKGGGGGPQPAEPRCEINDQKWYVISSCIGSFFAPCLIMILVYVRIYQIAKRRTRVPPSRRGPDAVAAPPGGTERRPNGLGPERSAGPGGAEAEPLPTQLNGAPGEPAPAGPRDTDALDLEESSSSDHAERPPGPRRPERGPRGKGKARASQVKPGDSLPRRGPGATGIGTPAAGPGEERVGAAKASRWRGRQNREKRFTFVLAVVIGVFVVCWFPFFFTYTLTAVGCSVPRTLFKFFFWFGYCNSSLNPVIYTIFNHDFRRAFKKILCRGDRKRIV

[7] = biological target: T4, 5-hydroxytryptamine receptor 1A (Homo sapiens, UniProt P08908)
T4 sequence (P08908 whole entry): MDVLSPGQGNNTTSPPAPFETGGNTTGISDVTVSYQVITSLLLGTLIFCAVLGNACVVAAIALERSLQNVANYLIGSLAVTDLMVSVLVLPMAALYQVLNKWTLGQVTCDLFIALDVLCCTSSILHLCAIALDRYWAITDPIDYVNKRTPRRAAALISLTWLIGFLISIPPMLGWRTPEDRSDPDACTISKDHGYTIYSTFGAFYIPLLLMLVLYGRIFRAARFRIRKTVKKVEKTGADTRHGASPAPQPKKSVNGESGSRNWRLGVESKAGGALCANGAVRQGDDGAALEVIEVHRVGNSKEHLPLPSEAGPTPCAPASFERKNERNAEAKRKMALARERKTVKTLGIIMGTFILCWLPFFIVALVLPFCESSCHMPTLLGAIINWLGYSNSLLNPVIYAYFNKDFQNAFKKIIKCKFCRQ

Mu-type opioid receptor = Mu-type opioid receptor (Homo sapiens, UniProt P35372)
Chain of Mu-type opioid receptor (P35372 whole entry): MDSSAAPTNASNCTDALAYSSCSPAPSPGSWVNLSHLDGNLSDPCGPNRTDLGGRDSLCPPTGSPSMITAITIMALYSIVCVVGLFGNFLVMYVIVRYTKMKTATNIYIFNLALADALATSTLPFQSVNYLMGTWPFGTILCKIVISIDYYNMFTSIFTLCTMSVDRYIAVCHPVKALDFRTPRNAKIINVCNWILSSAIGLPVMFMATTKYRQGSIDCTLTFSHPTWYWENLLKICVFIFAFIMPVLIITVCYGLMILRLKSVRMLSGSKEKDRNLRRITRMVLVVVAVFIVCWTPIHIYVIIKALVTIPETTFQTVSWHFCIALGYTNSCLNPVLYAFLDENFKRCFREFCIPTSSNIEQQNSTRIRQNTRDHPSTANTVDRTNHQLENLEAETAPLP

Estrogen receptor = biological target: T5, Estrogen receptor (Homo sapiens, UniProt P03372)
T5 sequence (P03372 whole entry): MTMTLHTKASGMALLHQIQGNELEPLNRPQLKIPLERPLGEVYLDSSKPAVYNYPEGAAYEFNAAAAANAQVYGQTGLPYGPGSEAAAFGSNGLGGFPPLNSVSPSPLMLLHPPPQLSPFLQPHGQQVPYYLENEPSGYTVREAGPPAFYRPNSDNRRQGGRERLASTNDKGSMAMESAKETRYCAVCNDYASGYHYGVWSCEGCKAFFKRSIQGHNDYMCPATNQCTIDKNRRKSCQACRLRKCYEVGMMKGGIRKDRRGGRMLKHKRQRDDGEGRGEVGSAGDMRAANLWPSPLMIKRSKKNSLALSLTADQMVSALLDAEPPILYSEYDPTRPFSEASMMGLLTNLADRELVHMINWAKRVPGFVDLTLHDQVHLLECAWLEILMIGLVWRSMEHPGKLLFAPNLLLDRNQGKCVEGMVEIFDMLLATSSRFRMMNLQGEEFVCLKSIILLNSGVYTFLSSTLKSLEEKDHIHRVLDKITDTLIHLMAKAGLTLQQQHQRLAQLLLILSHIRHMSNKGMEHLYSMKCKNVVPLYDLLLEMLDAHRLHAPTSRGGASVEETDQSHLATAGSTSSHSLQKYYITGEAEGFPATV

[8] = biological target: Voltage-gated inwardly rectifying potassium channel KCNH2 (Homo sapiens, UniProt Q12809); format: functional; conditions: read-out: AC50
Chain of Voltage-gated inwardly rectifying potassium channel KCNH2 (Q12809 whole entry): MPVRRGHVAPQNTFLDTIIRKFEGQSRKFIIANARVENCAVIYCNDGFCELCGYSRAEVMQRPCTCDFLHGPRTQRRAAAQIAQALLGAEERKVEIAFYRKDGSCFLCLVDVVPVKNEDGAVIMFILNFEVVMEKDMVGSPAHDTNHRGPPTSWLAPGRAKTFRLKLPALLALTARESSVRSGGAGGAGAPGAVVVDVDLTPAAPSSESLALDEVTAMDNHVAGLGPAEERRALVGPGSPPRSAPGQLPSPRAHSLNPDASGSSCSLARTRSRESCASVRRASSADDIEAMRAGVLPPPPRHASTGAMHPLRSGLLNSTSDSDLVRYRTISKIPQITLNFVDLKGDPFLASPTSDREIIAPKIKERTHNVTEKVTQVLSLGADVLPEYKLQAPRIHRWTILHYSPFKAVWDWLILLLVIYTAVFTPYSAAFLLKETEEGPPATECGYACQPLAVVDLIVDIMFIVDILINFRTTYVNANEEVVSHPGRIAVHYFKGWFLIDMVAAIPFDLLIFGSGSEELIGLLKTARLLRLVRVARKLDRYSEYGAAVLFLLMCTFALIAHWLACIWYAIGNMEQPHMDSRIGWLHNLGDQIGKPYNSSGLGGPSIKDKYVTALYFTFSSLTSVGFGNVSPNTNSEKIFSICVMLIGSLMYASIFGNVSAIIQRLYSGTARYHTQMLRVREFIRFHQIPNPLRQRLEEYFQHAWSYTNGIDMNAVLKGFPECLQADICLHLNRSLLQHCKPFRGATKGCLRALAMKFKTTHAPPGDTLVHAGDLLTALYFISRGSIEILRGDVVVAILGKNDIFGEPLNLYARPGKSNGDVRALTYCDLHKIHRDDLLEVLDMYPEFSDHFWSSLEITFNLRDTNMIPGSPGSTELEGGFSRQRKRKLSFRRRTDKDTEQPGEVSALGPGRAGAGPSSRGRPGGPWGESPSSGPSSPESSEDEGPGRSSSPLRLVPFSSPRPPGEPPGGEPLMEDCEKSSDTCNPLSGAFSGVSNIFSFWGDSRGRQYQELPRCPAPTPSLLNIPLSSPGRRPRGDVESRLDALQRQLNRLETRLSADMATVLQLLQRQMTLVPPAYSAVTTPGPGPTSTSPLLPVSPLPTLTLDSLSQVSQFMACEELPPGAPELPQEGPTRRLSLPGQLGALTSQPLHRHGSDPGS
Also: assay procedure not described here.

SMILES	AC50 [1] [µM]	AC50 (D(1A) dopamine receptor) [µM]	AC50 [2] [µM]	AC50 [3] [µM]	AC50 (Histamine H3 receptor) [µM]	AC50 [4] [µM]	AC50 [5] [µM]	AC50 (Prothrombin) [µM]	AC50 [6] [µM]	AC50 [7] [µM]	AC50 (Mu-type opioid receptor) [µM]	AC50 (Estrogen receptor) [µM]	AC50 [8] [µM]
CCS(=O)(=O)N1CC(CC#N)(n2cc(-c3ncnc4[nH]ccc34)cn2)C1 [BARICITINIB]	> 30	> 30	> 30	> 30	> 30	> 30	> 30	> 30	> 30	> 30	> 30	> 30	
O=C(Cn1ccnc1[N+](=O)[O-])NCc1ccccc1 [BENZNIDAZOLE]	> 30	> 30	> 30	> 30	> 30	> 30	> 30	> 30	> 30	> 30	> 30	> 30	
CCCC[N+]1(C)[C@@H]2C[C@@H](OC(=O)[C@H](CO)c3ccccc3)C[C@H]1[C@@H]1O[C@@H]12 (some centres not stated) [BUTYLSCOPOLAMINE]	> 30	> 30	> 30	> 30	> 30		> 30	> 30	> 30	> 30	> 30	> 30	2.8
NCc1ccccc1CC(=O)N[C@@H]1C(=O)N2C(C(=O)O)=C(CSc3nnnn3CC(=O)O)CS[C@H]12 [CEFORANIDE]	> 30	> 30	> 30	> 30	> 10	> 30	> 30	> 30	> 30	> 30	> 30	> 30	
O=C(c1ccc(F)c(F)c1Nc1ccc(I)cc1F)N1CC(O)([C@@H]2CCCCN2)C1 [COBIMETINIB]	> 30	24.1	> 30	> 30	> 30	13.8	> 30	> 30	> 30	> 30	0.271	> 30	
CC(C)=CCC1C(=O)N(c2ccccc2)N(c2ccccc2)C1=O [FEPRAZONE]	> 30	> 30	> 30	> 30	> 30	> 30	> 30	> 30	> 30	> 30	> 30	> 30	
CC(C)Cc1ccc(C(C)C(=O)NO)cc1 (configuration not stated) [IBUPROXAM]	> 30	> 30	> 30		> 30	> 30	> 30	> 30	> 30	> 30	> 30	> 30	> 30
C1N2CN3CN1CN(C2)C3 [METHENAMINE]	> 30	> 30	> 30	> 30	> 30	> 30	> 30	> 30	> 30	> 30	> 30		> 30
Cn1cc[nH]c1=S [METHIMAZOLE]	> 30	> 30	> 30	> 30	> 30	> 30	> 30	> 30	> 30	> 30	> 30	> 30	
CC[C@@H]1/C=C(\C)C[C@H](C)C[C@H](OC)[C@H]2O[C@@](O)(C(=O)C(=O)N3CCCC[C@H]3C(=O)O[C@H](/C(C)=C/[C@@H]3CC[C@H](Cl)[C@H](OC)C3)[C@H](C)[C@@H](O)CC1=O)[C@H](C)C[C@@H]2OC [PIMECROLIMUS]	> 30	> 30	> 30	> 30	> 30	> 30	> 3	> 30	> 30	> 30	> 30		> 30
CC(C(=O)O)c1ccc2c(c1)Cc1cccnc1O2 (configuration not stated) [PRANOPROFEN]	> 30	> 30	> 30	0.702	> 30	> 30	> 30	> 30	> 30	> 30	> 30		> 30
O=C1CCC(N2C(=O)c3ccccc3C2=O)C(=O)N1 (configuration not stated) [THALIDOMIDE]	> 30	> 30	> 30	> 30	> 30	14.8	> 30	> 30	> 30	> 30	0.202		> 30
C[C@@H]1O[C@@H](OC[C@H]2O[C@@H](Oc3c(-c4ccc(OCCO)c(OCCO)c4)oc4cc(OCCO)cc(O)c4c3=O)[C@H](O)[C@@H](O)[C@@H]2O)[C@H](O)[C@H](O)[C@H]1O [TROXERUTIN]	> 30	> 30	> 30	22.4	> 30	> 30	> 30	> 30	> 30	> 30	> 30		> 30
COc1cc2c(cc1OC)[C@H]1C[C@@H](OC(=O)[C@@H](N)C(C)C)[C@H](CC(C)C)CN1CC2 [VALBENAZINE]	> 30	> 30	> 30	24.1	> 30	> 30	> 30	> 30	> 30		21.6	> 30	

From ChEMBL document CHEMBL5291721, “A preclinical secondary pharmacology resource illuminates target-adverse drug reaction associations of marketed drugs” (Nat Commun, 2023)
